Assay results: the supplement of paper PMC6723410

What follows are compounds tested on GUMC-403 (assay: viability at highest tested concentration (max response) relative to DMSO (% of DMSO control); higher = less cytotoxic). Settings: library / dose series: MIPE library, 11-point 1:3 dilution; top concentration 46.1 µM; 48 h.
Outline: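 Plates of 1536 wells were seeded with 700 patient-derived GUMC-403 papilloma cells per well, grown by conditional reprogramming, in 5 μL F + Y medium and kept overnight at 37 °C. Compounds followed at 23 nL by pin tool over an 11-point 1:3 series, for 48 h. After a CellTiter-Glo luminescence read on a ViewLux, signals were set against vehicle wells as 100% and empty wells as 0%. The reported number is viability at the highest tested concentration relative to vehicle control.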
Work on `CN(CCOc1ccc(CC2SC(=O)NC2=O)cc1)c1ccccn1` (stereo not drawn) yielded a viability of 118. With `CN[C@H]1CCC2=CC(=C(OC)C(=C2C/3=C/C=C(OC)\C(=O)/C=C13)OC)OC` the viability was 100. `C[C@H]1O[C@H]([C@H](O)[C@@H]1O)N2\C=C(F)/C(=O)NC2=O` gave a viability of 124. `CCC(=O)O[C@@]1([C@@H](C)C[C@H]2[C@@H]3CCC/4=C/C(=O)/C=C\[C@]4(C)[C@@]3(F)[C@@H](O)C[C@]12C)C(=O)CCl` showed a viability of 148. In the case of `O=C(O)CCc1ccc(NCc2cccc(Oc3ccccc3)c2)cc1`, the viability is reported as 122. `C=C1/C(=C\C=C2/CCC[C@]3(C)[C@@H]([C@H](C)CCCC(C)(C)O)CC[C@@H]23)C[C@@H](O)C[C@@H]1O` showed a viability of 145. For `C=C1C(=O)O[C@@H]2[C@H]3O[C@]3(C)CC/C=C(\C)CC[C@@H]12`, the viability was 108. With `CN1CCN(Cc2ccc(NC(=O)Nc3ccc(Oc4cc(NC(=O)C5CC5)ncn4)cc3)cc2C(F)(F)F)CC1` the viability was 52.7. Compound `COC1(C[S+]([O-])c2ccccc2)CCN(CCc2c[nH]c3ccc(F)cc23)CC1` (stereo not drawn) has a viability of 101. With `COc1cc2nc(N3CCN(C(=O)c4ccco4)CC3)nc(N)c2cc1OC` the viability was 23.4. In the case of `CCn1c(C(=O)N(C2CC2)C2CC2)cc2c3c(ncn3C)c(Nc3cc(C)n(C)n3)nc21`, the viability is reported as 118. `Cn1c(Nc2ccc(C(F)(F)F)cc2)nc2cc(Oc3ccnc(-c4nc(C(F)(F)F)c[nH]4)c3)ccc21` was tested, and the viability was 92.4. With `Cn1c(CCCC(=O)O)nc2cc(N(CCCl)CCCl)ccc21` the viability was 124. For `CN(C)CCc1ccc(O)cc1`, the viability was 118. `C[C@@H]1C(=O)O[C@H]2CC34[C@H]5C[C@@H](C(C)(C)C)C36[C@@H](OC(=O)[C@@H]6O)O[C@@]4(C(=O)O5)[C@]21O` (stereo partly drawn) showed a viability of 101. Compound `C[C@H](CCC(=O)O)[C@H]1CCC2C3C[C@H](O)[C@@H]4C[C@H](O)CC[C@]4(C)C3CC[C@@]21C` (stereo partly drawn) has a viability of 108. With `CC[C@@H]1C(=O)N(C)c2cnc(Nc3ccc(C(=O)NC4CCN(C)CC4)cc3OC)nc2N1C1CCCC1` the viability was 41.8. `CC(C)CC(=O)N[C@H](C(=O)N[C@H](C(=O)N[C@@H](CC(C)C)[C@@H](O)CC(=O)N[C@@H](C)C(=O)N[C@@H](CC(C)C)[C@@H](O)CC(=O)O)C(C)C)C(C)C` gave a viability of 99.5. Compound `CN1CCc2c(c3ccccc3n2Cc2ccc(C(=O)NO)cc2)C1` has a viability of 107. With `CC(=O)OCC(CCn1cnc2cnc(N)nc21)COC(C)=O` the viability was 116. `c1ccc2c(CN3CCNCC3)cccc2c1` was tested, and the viability was 122. In the case of `CC1(C)OC2CC3C4CC(F)C/5=C/C(=O)/C=C\C5(C)C4C(O)CC3(C)[C@@]2(O1)C(=O)CO` (stereo partly drawn), the viability is reported as 148. With `O=C(O)c1ccc(-c2c[nH]c3ncc(-c4ccccc4)cc23)cc1C1CCCC1` the viability was 145. For `O=[S+]([O-])(NCCNC/C=C/c1ccc(Br)cc1)c1cccc2cnccc12`, the viability was 72.3. Compound `CC/1=C(\CCN2CCC(CC2)C3=NOC4=C3C=CC(=C4)F)C(=O)N/5CCCCC5=N1` has a viability of 114. With `CN1CCN(CCCN2c3ccccc3Sc3ccc(Cl)cc32)CC1.O=C(O)/C=C\C(=O)O.O=C(O)/C=C\C(=O)O` the viability was 95.8. `CC[C@H](C)[N]1C=C(C)C2=C1C=C(C=C2C(=O)NC\C3=C(C)\C=C(\C)NC3=O)C4=CC=C(N=C4)N5CCNCC5` was tested, and the viability was 141. Compound `CC(C)c1ccccc1Cc1cc(C(=O)Nc2ccc([S+](=O)([O-])c3ccccc3C(C)(C)C)cc2)c(O)c(O)c1O` has a viability of 56.4. `Cc1nnc(C(=O)NC(C)(C)c2nc(C(=O)NCc3ccc(F)cc3)c(O)c(=O)n2C)o1` showed a viability of 124. Compound `C[C@@H](N)C1CC[C@@H](CC1)C(=O)NC2=CC=NC=C2` (stereo partly drawn) has a viability of 152. `O=C1CCc2ccc(OCCCCN3CCN(c4cccc(Cl)c4Cl)CC3)cc2N1` gave a viability of 99.5. Work on `C[C@]12CC[C@@H]3c4ccc(OC(=O)N(CCCl)CCCl)cc4CC[C@H]3[C@@H]1CC[C@@H]2OP(=O)([O-])[O-].[Na+].[Na+]` yielded a viability of 124. With `COc1ccccc1N1CCN(CCN(C(=O)C2CCCCC2)c2ccccn2)CC1` the viability was 95.3. With `CC(=O)Oc1cc2c(s1)CCN(C(C(=O)C1CC1)c1ccccc1F)C2.Cl` (stereo not drawn) the viability was 114. In the case of `NCCc1c[nH]cn1`, the viability is reported as 135. For `O=C(NCCO[N+](=O)[O-])c1cccnc1`, the viability was 108. `O=S(=O)([O-])CCS.[Na+]` gave a viability of 147. `CCC(C)SSc1ncc[nH]1` (stereo not drawn) was tested, and the viability was 101. `CC[C@@H]1/C=C(\C)C[C@H](C)C[C@H](OC)[C@H]2O[C@@](O)(C(=O)C(=O)N3CCCC[C@H]3C(=O)O[C@H](/C(C)=C/[C@@H]3CC[C@H](Cl)[C@H](OC)C3)[C@H](C)[C@@H](O)CC1=O)[C@H](C)C[C@@H]2OC` was tested, and the viability was 63.6. For `Oc1ccc(-c2nc(-c3ccncc3)c(-c3ccc(F)cc3)[nH]2)cc1`, the viability was 102. `CC(C)(O)CCc1ccc(OCc2cc(-c3cccc(OC(F)F)c3)c3ncccc3c2)cc1` gave a viability of 143. For `CC(C)OC(=O)[C@H](C)N[P@](=O)(OC[C@H]1O[C@@H](N2\C=C/C(=O)NC2=O)[C@](C)(F)[C@@H]1O)OC3=CC=CC=C3`, the viability was 107. `CC(C[N+](C)(C)C)OC(N)=O` (stereo not drawn) gave a viability of 101. In the case of `N[C@@H](Cc1ccc(O)c(O)c1)C(=O)O`, the viability is reported as 133. With `OC1=CC=C(C=C1)\C2=C(O)\C(=O)C3=C(O2)C=C(O)C=C3O` the viability was 160. For `c1ccc(-c2nn3c(c2-c2ccnc4cc(OCCN5CCOCC5)ccc24)CCC3)nc1`, the viability was 148. `CCNC(=O)C[C@@H]1\N=C(C2=CC=C(Cl)C=C2)/C3=C(C=CC(=C3)OC)[N]4C(=NN=C14)C` gave a viability of 79.8. Compound `CC(C)c1c(C(=O)Nc2ccccc2)c(-c2ccccc2)c(-c2ccc(F)cc2)n1CC[C@@H](O)C[C@@H](O)CC(=O)[O-]` has a viability of 70.3. Work on `C[C@H]1[C@@H](OC(=O)CCC(=O)O)O[C@@H]2O[C@@]3(C)CC[C@H]4[C@H](C)CC[C@@H]1[C@@]24OO3` yielded a viability of 97.7. `Nc1cc(c(cc1S(=O)(N)=O)S(N)(=O)=O)C(/Cl)=C(/Cl)Cl` was tested, and the viability was 105. `OC1=C(O)C2=C(\C=C/C(=O)O2)C=C1` was tested, and the viability was 110. Work on `CCOC(=O)c1ncn2c1CN(C)C(=O)c1cc(F)ccc1-2` yielded a viability of 108. `COc1cc(/C=C/C(=O)O)ccc1O` was tested, and the viability was 115. In the case of `CC1(C)O[C@@H]2C[C@H]3[C@@H]4CCC5=CC(=O)C=C[C@]5(C)[C@@]4(F)[C@@H](O)C[C@]3(C)[C@]2(C(=O)CO)O1`, the viability is reported as 117. `OC1=CC2=C(C(=C1)O)C(=O)\C(=C(/O2)C3=CC(=C(O)C=C3)O)O` was tested, and the viability was 147. Compound `O=C1Cc2cc(CCN3CCN(c4nsc5ccccc45)CC3)c(Cl)cc2N1` has a viability of 100. In the case of `NC\1=N\C(=O)N(\C=C1F)[C@H]2C[C@H](O)[C@@H](CO)O2`, the viability is reported as 108. `COc1cc2nc(N3CCCN(C)CC3)nc(NC3CCN(Cc4ccccc4)CC3)c2cc1OC` gave a viability of 13.6. Work on `CN\1C(=O)/C(=C(\N=C1N2CCCC[S+]2([O-])=O)C(=O)NCC3=CC=C(F)C=C3)O` yielded a viability of 121. Work on `COc1cc(OC2CCN(C)CC2)ccc1Nc1ncc2c(n1)n(C1CCCC1)c(=O)n2C` yielded a viability of 60.4. Work on `NC(=O)N/N=C/c1ccc([N+](=O)[O-])o1` yielded a viability of 135. With `CCN1CCN(c2ccc(Nc3cc(N(C)C(=O)Nc4c(Cl)c(OC)cc(OC)c4Cl)ncn3)cc2)CC1` the viability was 117. Compound `C[N+]1(C)[C@@H]2CC(OC(=O)C(O)(c3cccs3)c3cccs3)C[C@H]1[C@@H]1O[C@@H]12` (stereo partly drawn) has a viability of 127. Compound `O=C1NCCc2[nH]c(-c3ccncc3)cc21` has a viability of 125. In the case of `C/C(=C\C(=O)Nc1ccccc1C(=O)O)c1ccc2ccccc2c1`, the viability is reported as 127. Compound `N#C/C(=C\c1ccc(O)c(O)c1)C(=O)NCc1ccccc1` has a viability of 110. For `O=C1[O][Pt]2([NH]C3CCCCC3[NH]2)[O]C1=O` (stereo not drawn), the viability was 113. Work on `FC1=CC=C(SC/2=N/N3\C=N/C(=O)/C(=C3/C=C2)C4=C(Cl)C=CC=C4Cl)C(=C1)F` yielded a viability of 108. `COC1=C(OC)C(=O)C(C/C=C(\C)CC/C=C(\C)CC/C=C(\C)CC/C=C(\C)CC/C=C(\C)CC/C=C(\C)CC/C=C(\C)CC/C=C(\C)CC/C=C(\C)CCC=C(C)C)=C(C)C1=O` showed a viability of 118. `O=C(NCc1ccccc1)[C@H](Cc1ccccc1)NC(=O)[C@H]1O[C@@H]1C(=O)NCCc1ccc(O)cc1` gave a viability of 107. With `Cc1nn(Cc2ccccc2Cl)c(C)c1CN(C)CC(O)COc1ccc(Cl)cc1` (stereo not drawn) the viability was 90.9. `CCOC(=O)Nc1ccc(NCc2ccc(F)cc2)nc1N` was tested, and the viability was 102. `CCCC1=NC(=C2[N]1NC(=N\C2=O)/C3=CC(=CC=C3OCC)[S+]([O-])(=O)N4CCN(CC)CC4)C` gave a viability of 102. For `COc1ccc([S+](=O)([O-])Nc2cc(-c3c(O)ccc4ccccc34)c(O)c3ccccc23)cc1`, the viability was 117. With `C#Cc1cccc(Nc2ncnc3cc(OC)c(OCCCCCCC(=O)NO)cc23)c1` the viability was 33.9. `CC(C)(C)OC(=O)CN(Cc1ccc(Cl)cc1)Cc1ccc([N+](=O)[O-])s1` showed a viability of 97.7. Work on `O=C/1\C=C(/OC(=C1)/C2=C3SC4=C(SC3=CC=C2)C=CC=C4)N5CCOCC5` yielded a viability of 111. With `CCCn1c(=O)c2[nH]c(C34CC5CC3C[C@@H](C5)C4)nc2n(CCC)c1=O` the viability was 122. Compound `CCCn1c(=O)c2[nH]c(-c3cnn(Cc4cccc(C(F)(F)F)c4)c3)nc2n(CC)c1=O` has a viability of 119. In the case of `C[C@H](NC(=O)c1sccc1OCc1ccc(Cl)cc1)c1ccccc1`, the viability is reported as 95.3.

Same assay, conditions: library / dose series: MIPE library, 11-point 1:3 dilution; top concentration 92.2 µM; 48 h
`O=C(O)[C@H](Cc1c[nH]c2ccccc12)N1C(=O)c2ccccc2C1=O` was tested, and the viability was 116. For `C[Se]CCC(N)C(=O)O` (stereo not drawn), the viability was 98. `C[C@@H]1CC[C@@]2(CC[C@]3(C)\C(=C/C[C@@H]4[C@@]5(C)CC[C@H](O)C(C)(C)[C@@H]5CC[C@@]34C)[C@@H]2[C@H]1C)C(O)=O` was tested, and the viability was 95.2.
